Reference: patent US8105798B2, “Cytoplasmic activity of retinoid X receptor and its regulation by ligands and dimerization” (The Burnham Institute, priority 2003, dated 2012)

Experiments:
RXRα LBD protein = biological target: T1, RXRα LBD protein (Homo sapiens, UniProt P19793); experiment: sensitivity of RXRα protein to chymotrypsin digestion; format: biochemical; details: 100 μM sulindac sulfide
T1 construct: made in house; host or cells: E. coli BL21 (pET vector, Novagen)
T1 sequence (P19793 224-462): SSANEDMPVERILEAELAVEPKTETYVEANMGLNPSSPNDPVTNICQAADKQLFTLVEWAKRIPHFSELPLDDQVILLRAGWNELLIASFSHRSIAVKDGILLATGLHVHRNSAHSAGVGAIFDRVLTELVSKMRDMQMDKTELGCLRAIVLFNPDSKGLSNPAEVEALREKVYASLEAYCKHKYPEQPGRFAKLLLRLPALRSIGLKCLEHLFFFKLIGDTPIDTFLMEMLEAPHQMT
Procedure: (FIG. 12b). LBD protein was incubated in the absence (DMSO) or presence of sulindac sulfide (100.micro.M) and then subjected to digestion by chymotrypsin for 30 min. Briefly, SEQ ID No.: 11 was cloned into the pET vector system available from Novagen and the recombinant vector was transformed into and expressed in BL21 cells. Digested reactions were separated by SDS-PAGE and visualized by Commassie blue staining. 35^S RXR protein was incubated for 30 minutes at room temperature in the presence or absence of 100.micro.M sulindac sulfide. Chymotrypsin was then added to a series of labeled protein reactions at final concentrations of 0, 37.5, 75, 150 and 300.micro.g per ml, and digestion proceeded for 20 minutes.

TR3 = experiment: subcellular localization of TR3 and RXRα/TR3 heterodimer by confocal microscopy; format: cell-based; details: 75 μM
Procedure: FIG. 10 is a series of confocal microscope images of immunostained PC12 cells illustrating that binding of 15d-PGJ2 to RXRα induces translocation of RXRα homodimer/monomer or TR3/RXRα heterodimer from the nucleus to the cytoplasm. Expression vectors for Flag-RXRα and GFP-TR3 were transfected into PC12 cells alone or together. Cells were then treated with 15d-PGJ2 (5.micro.M) for 3 hr, then immunostained with anti-Flag antibody to detect RXRα Flag-RXRα and GFP-TR3 were visualized by confocal microscopy, and their images merged.
In the absence of TPA, both TR3 and RXRα reside mainly in the nucleus. […] (FIG. 2).
Because RXR heterodimerizes with TR3, Inventor examined the effect of 15d-PGJ2 on TR3 subcellular localization in PC12 phaeochromocytoma cells.
Either TR3 alone, RXRα alone or TR3 and RXRα was transfected into HEK293T cells. Cells were then treated with sulindac sulfide (75.micro.M) for 6 hr. RXR.alpha and TR3 localization was determined by immunostaining, and cells were also stained by DAPI. […] Thus, the effect of sulindac sulfide on the cytoplasmic localization of TR3 depends on RXRα expression, probably due to their heterodimerization. Thus, sulindac sulfide induces nuclear export of RXRα and RXRα/TR3 heterodimer. (FIG. 14b).
The effect of sulindac sulfide on mitochondrial targeting of RXRα and TR3 was determined by treating H460 lung cancer cells with 75 micro.M sulindac sulfide for 6 hours and visualization of the cellular localization of these proteins by immunostaining. A two stage detection system was used having either anti-RXR or anti TR3 as a first stage (Santa Cruz Biotechnology and Abgent, respectively). In the absence of treatment, both RXRα and TR3 were found mainly in the nucleus.

[1] = system: CV-1, MGC80-3, HEK293T and HCT116 cells; experiment: apoptosis determined by DAPI staining; format: cell-based; details: 75 μM, 24 hr
Procedure: To determine the involvement of RXRα in sulindac sulfide-induced apoptosis of cancer cells, its effect on apoptosis of CV-1 cells (available from American Type Cell Culture, Manassas, Va., as accession number CCL-70) in the absence or presence of RXRα transfection was evaluated. FIG. 13a. RXR was cloned into a pGFP.C2 vector (GenBank Accession #: U19281) according to the procedure of Li et al., Science 289, 1159-1164 (2000). CV-1 cells were transfected with or without RXRα prior to treatment with sulindac sulfide (75.micro.M) for 24 hr. […] Louis, Mo., as catalogue number D9542), and the presence of nuclear fragmentation and/or chromatin condensation is an indicator of apoptosis. […] The requirement of RXRαwas also examined using RXRα siRNA SEQ ID No.: 12 approach. MGC80-3 cells, HEK293T (ATCC, accession number CCL-1573) and HCT116 (ATCC, accession number CCL-247) cell lines were transfected with RXRα siRNA or control siRNA using oligofectamine (from Invitrogen, Corp). Cell samples from each cell line were lysed and the cell extracts were prepared by immunoblotting to determine RXRα expression. Cells transfected with RXR.alpha siRNA or control siRNA were treated with sulindac sulfide (75.micro.M) for 24 hr, and apoptosis was determined by DAPI staining.

[2] = system: H460, MGC80-3 and LNCaP cells; experiment: cytochrome c release by immunostaining; format: cell-based; details: 75 μM, 6 hr
Procedure: To uncover the consequence of RXRα mitochondrial localization induced by sulindac sulfide, H460, MGC80-3 and LnCap cells were treated with or without sulindac sulfide and RXRα mitochondrial and cytochrome c release were determined by immunostaining, as described above. Cells were treated with or without sulindac sulfide (75.micro.M) for 6 hr. Cells were then stained with RXRα, Hsp6, and cytochrome c (cyt c).

Structure (SMILES): CSc1ccc(/C=C2/C(C)=C(CC(=O)O)c3cc(F)ccc32)cc1 [sulindac sulfide]
- sensitivity of RXRα protein to chymotrypsin (RXRα LBD protein): modulation of sensitivity of RXRα protein to chymotrypsin
- mitochondrial targeting of RXRα and TR3 (Hsp60) (TR3; H460 lung cancer cells, 6 hours): extensive co-localization of RXRα and TR3 with Hsp60
- TR3 and RXRα localization, co-transfected (TR3; HEK293T cells, 6 hr): both TR3 and RXRα are found in the cytoplasm
- TR3 localization, TR3 transfected alone (TR3; HEK293T cells, 6 hr): does not affect the nuclear localization of TR3
- apoptosis, cells transfected with RXRα ([1]; CV-1 cells, DAPI staining): extensive apoptosis
- apoptosis in cells transfected with RXRα siRNA versus control siRNA ([1]; MGC80-3, HEK293T and HCT116 cells): significant reduction of apoptosis
- cytochrome c release [2]: massively released
